pIC50: −log10 of the molar value.
System: Human platelets
Assay: ADP-stimulated platelet aggregation assay (gel-filtered human platelets)
Type: cell-based
Conditions: fibrinogen 100 μg/ml, Ca^2+ 1 mM, 10 uM ADP, 37° C., read-out: platelet aggregation inhibition potency, IC50
Experimental: An ADP-stimulated platelet aggregation assay was used to determine inhibition associated with compounds of the invention.
Human platelets were isolated from fresh blood, collected into acid citrate/dextrose by differential centrifugation followed by gel filtration on Sepharose 2B in divalent ion-free Tyrode's buffer (pH 7.4) containing 2% bovine serum albumin. Platelet aggregation was measured at 37° C. in a a Chronolog aggregometer. The reaction mixture contained gel-filtered human platelets (2×10^8 per ml), fibrinogen (100 μg/ml), Ca^2+ (1 mM), and the compound to be tested. Aggregation was initiated by adding 10 uM ADP 1 minute after the other components had been added. The reaction was allowed to proceed for at least 2 minutes. The extent of inhibition of aggregation was expressed as the percentage of the rate of aggregation observed in the absence of inhibitor. The IC50 is the dose of a particular compound inhibiting aggregation by 50% relative to a control lacking the compound.

pIC50	SMILES
6.04	O=C(O)CCNC(=O)c1ccc2c(c1)C(=O)N(CCCC1CCNCC1)C2
4.85	O=C(O)CNC(=O)c1ccc2c(c1)C(=O)N(CCCC1CCNCC1)C2
